Data on four compounds can be found in US6815461B1, “Method of inhibiting retroviral integrase” (The University of North Carolina at Chapel Hill, priority 1994, dated 2004).

Like-named read-outs stand apart in the source and are kept apart here.

One series has as its target T1, HIV-1 integrase (Human immunodeficiency virus type 1 group M subtype B, UniProt P04585).
T1 construct: using the integrase coding domain from the HXB2 clone of HIV-1 DNA; made in house; host or cells: E. coli
The series is described as follows: Integrase inhibition assay (cleavage and strand transfer of 32P-labelled HIV-1 U5/U3 oligonucleotide substrate). It counts as biochemical. The method, then:
Integrase was overproduced in E. coli from an inducible plasmid containing the integrase sequence under control of a lacI-regulated T7 polymerase using the integrase coding domain from the HXB2 clone of HIV-1 DNA (L. Ratner et al, AIDS Res. Hum. Retroviruses 3, 57-69 (1987)), pT7fll-IN. A one liter culture at an O.D. of 0.6 was induced by the addition of IPTG to 0.5 mM. After three hours, the cells were harvested by centrifugation and the pellets were stored at −70° C.
The integrase protein was purified by a modification of the method of Sherman and Fyfe (P. Sherman et al, Proc. Natl. Acad. Sci. USA 87, 5119-23 (1990)). The cells were lysed by thawing in a buffer (50 mM Tris-HCl pH 7.5, 5 mM dithiothreitol, 1 mM EDTA, 1 mg/ml lysozyme) on ice at 6 ml/g bacterial pellet for 30 minutes, and then incubating at 37° C. for 5 minutes. The lysate was centrifuged at 12,000×g for one hour. The pellets were resuspended in 50 mM Tris-HCl, pH 7.5, 1 mM dithiothreitol, 1 mM EDTA, 1 M NaCl (4 ml/g original bacteria). The homogenate was stirred for 30 minutes at 4° C. and recentrifuged for 30 minutes at 12,000×g.
The supernatant was made 0.8 M in ammonium sulfate by the slow addition of powder with stirring over a 30 minute period. The extract was then centrifuged to remove any precipitate and applied to a phenyl sepharose column. After a 50 ml wash with high salt buffer (50 mM Tris-HCl, 1 mM EDTA, 5 mM DTT, 2 M NaCl), the protein was eluted with a gradient from high salt to O salt buffer containing 10% (weight/vol) glycerol and further purified through a G75 Sephadex column to remove background nuclease. A one liter culture generates enough integrase activity to perform over a thousand drug inhibition assays.
Cleavage of specific sites is assessed as described in Sherman et al., supra, except that the assay buffer was the same as that reported by Chow et al, Science 255, 723-6 (1992). Single 20 mer oligonucleotides corresponding to either the U5 or U3 ends of HIV-1 are end-labeled with ^32P, annealed with its complement, purified, and used under the same conditions as described above for the endonuclease assay. Reaction products are denatured with formamide, electrophoresed through 20% denaturing polyacrylamide gels and visualized by autoradiography. Both cleavage and ligation activity can be assessed from one gel. To assess the ligation activity alone, “precleaved” substrate that had the −2 cleavage artificially produced by using a radiolabelled 18 mer oligonucleotide was also used for some experiments.
Integrase overproduced in E. coli was purified as described above in accordance with Sherman et al, supra, and used in drug inhibition assays. […] Dilutions of the inhibitor compounds described in Example 1 above were mixed with substrate before the addition of enzyme. The Assay was the same as described in Example 2 and used the substrate described in Example 2. Each assay was performed in duplicate. Radioactivity in bands on dried gels were quantitated with a Phosphor imager to assess drug effects on both the cleavage, nuclease, and ligation products. The IC50 values for integrase inhibition were calculated for both the cleaving and joining parts of the integrase reaction after determining the % inhibition of the control reaction for a series of drug concentrations. Compounds A, B, C, and D had similar effects on integrase activity. Compound A, however, caused aggregation of the substrate starting at relatively low concentrations (10 μM), complicating its assessment.

In series [1] the test system is HIV-1. The series is described as follows: Magic cell HIV-1 inhibition assay. It counts as cell-based, HIV-1 strain HXB2. The settings on record: Human immunodeficiency virus 1; Magic cells, infectious units with or without drug, 4 h pretreatment, read two days later. The method, then: Cell lines used were CEM cells, a human T-cell lymphona cell line, A. Kaplan et al, J. Virol. 67, 4050-5 (1993), and Magic cells, J. Kimpton et al, J. Virol. 66, 2232-2239 (1992). The CEM cells were grown in RPM1-1640 medium supplemented with 5% FCS. The Magic Cells, a HELA derivative, were grown in DMEM/H supplemented with 5% FCS, G418 ([…]) and Hygromycin ([…]). The HIV isolate was strain HXB2, originally from Lee Ratner in the laboratory of Robert Gallo at the National Institutes of Health.
The magic cell assay described by Kimpton et al., supra, was used as described. This assay identifies individual cells infected with HIV-1 by the expression of tat, which transactivates an endogenous copy of the HIV-1 LTR linked to the lac2 reporter gene after integration, inducing β-galactosidase expression when x-gal is added to the cell medium. Any cell with integrated HIV-1 will turn blue. Thus, this assay provides a convenient way to determine the effect of HIV inhibitors at any early step up through the expression of tat, including the inhibition of integration.
The magic cells are plated in twelve-well plates one day prior to infection. The standard assay involves infection with approximately 200 infectious units of HIV-1. This gives an approximately 20 to 1 ratio of signal to background and sufficient numbers of infectious events to quantitate dim effects. The cells are pretreated with drug for 4 hours prior to virus infection, and virus adsorption takes place for 1 hour. The cells are washed with plain medium, and then medium with inhibitor is placed back on the cells. Two days later the cells are fixed after integration with x-gal, the indicator reagent for β-galactosidase production. The number of β-galactosidase expressing cells are quantitated by light microscopy.
The results of comparisons of infectious units with or without various concentrations of the bis-benzimididazoles drugs in the magic cell assay are expressed as IC50 values and are compiled in Table 2 above. Note that the best anti-HIV compounds (B-D) were also the best integrase inhibitors, except for compound A, which could not be accurately measured due to its substrate aggregating properties.

A short description of series [2]: Toxicity assay (XTT) on the cell lines used to measure virus infectivity. It is filed as cell-based. The settings on record: human. The method, then: (§1) Three different toxicity tests were performed on the cell lines used to measure virus infectivity.
(§2) The initial test for toxicity utilized the XTT Assay as described by Weislow et al, J. Natl. Cancer Inst. 81, 577-586 (1989). This is the standard assay used originally to measure cell toxicity by potential reverse transcriptase inhibitors. Briefly, cells were grown to cells/ml and drug dilutions were added to the medium. After two days incubation, XTT reagent is added and incubation is continued for 4 h at 37° C. Following incubation, the plates are read at 450 minus 650 nm (the 650 value is the backround value which is automatically subtracted) with controls of media+XTT reagent without cells, and cells+media without reagent. Also a control of cells+media+XTT reagent was run for each plate. Medium without phenol red was employed to minimize background color as the XTT reagent goes from colorless (unreduced) to orange (reduced). The XTT reagent was freshly prepared on the day of assay as follows: 1 mg/ml of XTT in […] phenazine methosulfate. The phenazine methosulfate solution was prepared ahead of time and stored at 4° C. in a dark bottle. The XTT reagent is added to the microtiter wells at 24 ul per 100 ul of medium. The O.D. was measured on a Vmax plate reader from Molecular Devices Co. with data reduction. Results are expressed as percent of untreated controls. The least toxic compounds were Compounds A, B, and F with toxicities values at 500 μM or greater.
(§3) The third test for cell toxicity assessed growth rate in the presence of the test compound versus a control culture. Magic cells were grown over a period of 15 days with or without various dilutions of test compound. Aliquots were removed every other day and the cells were counted in a hemocytometer. The results are set forth in FIG. 2 herein (see also Table 2 below).

The subject of series [3] is Magic cells. The description is as above. It is filed as cell-based. As to conditions: human, 2 days. The protocol:
as §1, §2, §3

Series [4] relates to Magic cells. Description: Plating efficiency test. It counts as cell-based. As to conditions: at the concentrations at which anti-viral effects were observed. The method, then:
Next, a plating efficiency test measured the ability of the cell to grow after incubation with drug for a number of days. Magic cells were grown from an initial cell concentration of 0.8×104 with or without various concentrations of test compound for 6 days. Plating ability of the cells was assessed by plating dilutions of each culture on plastic. Colony forming units were determined after growth for two to four days by counting colonies after staining the plates. Each sample was plated in duplicate and the colony number averaged.
Another test of cellular effects by the compounds was a measure of plating efficiency of the cells after incubation with various concentrations of test agents. This will assess the actual killing of the cells by the drugs. The IC50 values are expected to be much higher in this test.

Series [5] relates to Magic cells. The series is described as follows: Growth rate in the presence of test compound. It counts as cell-based. The protocol:
as §3
The most sensitive test employed measurements of growth rates for the cells in the presence of the test compound. Although the anti-viral assay used was one that assessed early times of the viral life cycle, this test was carried out for 15 days, with counting of cell numbers in cultures performed every other day during this time.

Series [6] has as its system HIV-1. Description: Standard reinfection assay of antiviral activity. It is filed as cell-based. The settings on record: Human immunodeficiency virus 1. The method, then:
In addition, the assessment of antiviral activity as measured by the standard reinfection assay was performed for compound B. The IC50 for compound B in this assay was 10-30 μM. This confirms that the Magic cell assay is suitable for screening potential integrase inhibitors with good antiviral activity.

The mark [7] stands for this setting: Integrase Cleavage IC50, % cleavage of the substrate compared to control.
The mark [8] stands for this setting: Integrase Strand Transfer IC50, joining part of the integrase reaction.

For the compound `N=C(N)c1ccc2nc(C=Cc3nc4ccc(C(=N)N)cc4[nH]3)[nH]c2c1` [Compound A, 1,2-bis[5-amidino-2-benzimidazolyl]ethene], the results for the IC50 at HIV-1 integrase (setting [7]), on HIV-1 integrase (setting [8]) and with HIV-1 [1] were 11 µM, 11.5 µM and 48 µM, respectively. For the same compound, on HIV-1 integrase (integrase assay substrate), the “Concentration at which aggregation of the substrate starts” value turned out to be 10 µM. Moreover, in series [2], the IC50 at 2 days was > 500 µM. For the same compound, the “XTT assay toxicity value” in the series with Magic cells [3] was ≥ 500 µM.

Regarding `CC(C)NC(=N)c1ccc2nc(C=Cc3nc4ccc(C(=N)NC(C)C)cc4[nH]3)[nH]c2c1` [Compound B, 1,2-bis[5-isopropylamidino-2-benzimidazolyl]ethene], the IC50 against HIV-1 integrase (setting [7]) was 61 µM; at HIV-1 integrase (setting [8]), 19 µM; in the series on HIV-1 [1], 10 to 30 µM; with HIV-1 [6] it was 10 to 30 µM. In addition, in the series with Magic cells [4], the “Effect on Magic cell plating efficiency” value is listed as “no effect”. Further, the “Effect on growth rate of the cell line” value in the series with Magic cells [5] (concentration that inhibited 50% of the viral integration events, up to two weeks) was “no effect on the growth rate”. The “Effect on growth rate of the cells” value with Magic cells [5] (higher concentrations, 15 days test) is on record as “did effect the growth rate”. In series [2], this compound yielded an IC50 at 2 days of 473 µM. Moreover, the “XTT assay toxicity value” with Magic cells [3] was ≥ 500 µM.

In the case of `N=C(N)c1ccc2nc(Cc3nc4ccc(C(=N)N)cc4[nH]3)[nH]c2c1` [D, bis[5-amidino-2-benzimidazolyl]methane], the IC50 in the series on HIV-1 [1] came out at 7 µM. Also, the IC50 at 2 days in series [2] (Magic cells, read-out: Magic Cells Toxicity IC50) amounted to 175 µM.

On to `N=C(N)c1ccc2[nH]c(Cc3nc4cc(C5=NCCN5)ccc4[nH]3)nc2c1` [E, (5-Amidino-2-benzimidazolyl)-(5′-(2-imidazolinyl)-2′-benzimidazolyl)methane], for which the IC50 was > 100 µM on HIV-1 integrase (setting [7]), 122 µM at HIV-1 integrase (setting [8]) and 16 µM in the series with HIV-1 [1]. The same compound registered a half-maximal inhibitory concentration (IC50) at 2 days in series [2] of 65 µM.
